{"source": "ChEMBL document CHEMBL5505987", "about": "(Eur J Med Chem, 2024)", "system": "4T1", "experiment": "Cytotoxicity against mouse 4T1 cells assessed as cell viability by MTT assay", "format": "functional, cell-based", "note": "Where a name gives a salt, the structure may show the parent alone."}
{"smiles": "COc1cccc2c1C(=O)c1c(O)c3c(c(O)c1C2=O)C[C@@](O)(C(=O)CO)C[C@@H]3O[C@H]1C[C@H](N)[C@H](O)[C@H](C)O1", "note": "[DOXORUBICIN HYDROCHLORIDE]", "values": [{"measurement": "IC50", "result": 2400, "unit": "nM"}]}
